# Measured values from patent publication US20030143559A1, “Novel estrogen receptor ligand binding domain variants and novel ligands and pharmaceutical compositions” (priority 2001, published 2003).
# Substitutions are numbered along the chain they refer to. Where “and” joins values, the source holds several entries; their conditions need not be identical. Identical values can stand only once.
# How the values were obtained:
# [1] = target: T1, Av3-421/428 (Homo sapiens, UniProt P03372, L428A/M421V); assay: Transactivation on adenoviral (Av3)-delivered ER variant, luciferase in HeLa cells
# T1 sequence (P03372 258-554 M421V/L428A): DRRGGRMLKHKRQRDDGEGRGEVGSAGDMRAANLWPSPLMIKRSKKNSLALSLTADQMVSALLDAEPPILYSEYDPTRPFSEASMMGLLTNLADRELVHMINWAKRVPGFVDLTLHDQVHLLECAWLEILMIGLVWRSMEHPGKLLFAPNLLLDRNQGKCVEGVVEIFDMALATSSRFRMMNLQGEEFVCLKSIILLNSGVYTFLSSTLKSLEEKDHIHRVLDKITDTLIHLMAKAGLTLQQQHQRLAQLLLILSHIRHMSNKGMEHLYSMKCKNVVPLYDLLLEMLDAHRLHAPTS
# From the text: For example, the ER LBD mutants of the present invention were constructed into a replication defective adenoviral vector (Av3) backbone DNA sequence so that this regulatory system could be delivered into cells for clinical application and testing. An Av3 vector containing a series of C7 binding sites linked to an SV40 minimal promoter and luciferase transgene (C7-SV40-luc) was also constructed and delivered simultaneously with each of the Av3 ER LBD mutant vectors. The cells were then exposed to the corresponding ligand to test the capability of the adenoviral-delivered ER mutants to respond to their corresponding ligands and then mediate the transcription of the luciferase transgene in the context of an adenoviral vector. […] Xu et al., Molecular Therapy, 3:262-273, 2000.
# [2] = target: T2, ER-LBD 421V/428A (Homo sapiens, UniProt P03372, L428A/M421V); assay: ER-LBD 421V/428A transactivation, cotransfection luciferase reporter assay in HeLa cells; assay type: cell-based; conditions: p6x2C7Luc reporter, 0.003 to 1000 nM, mean of two or more experiments, read-out: EC50 ± STDEV
# T2 construct: expressed in transfected cells; host or cells: HeLa
# T2 sequence (P03372 311-547 M421V/L428A): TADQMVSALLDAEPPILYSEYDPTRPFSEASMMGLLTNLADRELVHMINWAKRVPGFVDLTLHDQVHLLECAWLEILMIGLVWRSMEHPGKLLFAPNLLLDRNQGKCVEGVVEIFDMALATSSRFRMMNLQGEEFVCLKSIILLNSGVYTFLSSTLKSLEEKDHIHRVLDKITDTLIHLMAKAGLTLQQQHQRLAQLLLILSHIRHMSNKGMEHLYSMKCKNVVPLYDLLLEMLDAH
# Procedure: (§1) In order to evaluate the ability of the fusion proteins C7LBD A, B, and the related LBD mutants to regulate transgene expression, a standard co-transfection reporter assay was performed. A reporter construct, henceforth known as 6×2C7pGL3Luc, containing six copies of a directly repeated C7 binding site (6×2C7) inserted upstream of an SV40 promoter fragment and reporter gene encoding firefly luciferase (pGL3Pro; Promega) was transfected along with the designated fusion protein and assayed as described below. Note the consensus C7 binding site is 5′-GCG TGG GCG-3′.
# (§2) Cultured cells (HeLa, Cos, Hep3B or other) were seeded at 5×10^4 cells/well in a 24 well plate prior to the day of transfection in DMEM Phenol-free media, supplemented with L-glutamine and 5% (v/v) charcoal-dextran stripped Fetal Bovine serum (sFBS). Cells were transfected using the Qiagen Superfect Transfection method. For each well 1 μg of total DNA, containing 0.5 μg luciferase reporter plasmid (6×2C7pGL3Luc), 0.1 μg of chimeric activator DNA (e.g., C7LBDA, C7LBDB, or mutants thereof ), and 0.4 μg of an inert carrier plasmid DNA (p3Kpn), was mixed with 60 μL of DMEM phenol-free/serum free media, and 5 μL of Superfect reagent. In general, about 10 ng to about 0.5 μg of chimeric activator DNA was used for each well. […]
# [3] = target: T3, wild-type ER (Homo sapiens, UniProt P03372); assay: Inhibition of E2 activity on wild-type ER, COS-7 cells with pHEGO and ERE luciferase reporter; assay type: cell-based; conditions: IC50 ± STDEV, pHEGO and pERETkLuc, E2 (3 nM) + 0.1 to 1000 nM compound
# T3 construct: expressed in transfected cells; host or cells: COS-7
# T3 sequence (P03372 1-595): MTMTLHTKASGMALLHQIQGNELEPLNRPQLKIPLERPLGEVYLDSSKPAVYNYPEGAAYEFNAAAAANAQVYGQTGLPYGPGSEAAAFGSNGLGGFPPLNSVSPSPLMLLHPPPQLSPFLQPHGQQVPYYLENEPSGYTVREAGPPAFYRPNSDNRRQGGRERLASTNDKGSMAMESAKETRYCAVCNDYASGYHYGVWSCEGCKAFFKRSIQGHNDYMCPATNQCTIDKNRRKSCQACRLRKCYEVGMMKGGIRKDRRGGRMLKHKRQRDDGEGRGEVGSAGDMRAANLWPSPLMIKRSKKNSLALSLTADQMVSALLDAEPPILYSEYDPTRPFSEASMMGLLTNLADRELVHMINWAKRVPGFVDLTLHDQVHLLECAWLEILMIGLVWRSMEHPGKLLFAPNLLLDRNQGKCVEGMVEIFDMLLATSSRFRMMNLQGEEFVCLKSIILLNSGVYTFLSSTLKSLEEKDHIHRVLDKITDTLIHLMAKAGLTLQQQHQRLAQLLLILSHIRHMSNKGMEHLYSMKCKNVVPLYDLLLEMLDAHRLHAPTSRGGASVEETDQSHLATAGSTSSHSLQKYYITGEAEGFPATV
# Procedure: For transfection, 0.5 microgram of pERE2tkluc reporter plasmid, 20 ng of pHEGO, and 0.5 microgram of pCIneo inert carrier DNA were combined with 60 microliter serum-free DMEM and 5 microliter Qiagen Superfect transfection reagent, vortexed for 10s, and set at room temperature for 10 min. Each sample was diluted with 350 microliters of steroid-free media, mixed, and added to each well. Following 2 hr 30 min incubation at 37° C., cells were washed once with Dulbecco's phosphate buffered saline (DPBS), and refed with steroid-free media. […] Approximately 24 hr after treatment, cells were washed once with DPBS, then 200 microliter of reporter lysis buffer was added per well and frozen at −80° C. Cells were thawed at room temperature on an orbital shaker for 1 hr 30 min. A 10 microliter aliquot of lysate was transferred to 96 well opaque plates, and relative luciferase units (RLU) determined on a luminometer using the appropriate firefly luciferase substrate.
# Note that the nonspecific activity is a noncompetable element in the assay system.
# In order to dissolve them completely, all the solutions were warmed in 55° C. or boiled water bath for 10 to 20 min before use. The DMSO in cell culture medium was maintained to 0.01% for all the drug concentration tested as well as the vehicle control.
# [4] = target: T4, 388V-424Y-428A transcription factor (Homo sapiens, UniProt P03372, I424Y/L428A/M388V); assay: In vitro inducible luciferase expression with gutless adenoviral transcription factor vector in Hela cells; assay type: cell-based
# T4 construct: fragment B=ER amino acids 258-554; expressed in transfected cells; host or cells: HeLa cells transduced with Av3 or gutless adenoviral vector
# T4 sequence (P03372 258-554 M388V/I424Y/L428A): T1 sequence (P03372 258-554 M421V/L428A) with M131V, V164M, I167Y
# [5] = target: T5, ER-LBD 388V/424Y/428A (Homo sapiens, UniProt P03372, I424Y/L428A/M388V); assay: ER-LBD 388V/424Y/428A transactivation, cotransfection luciferase reporter assay in HeLa cells; assay type: cell-based
# T5 construct: expressed in transfected cells; host or cells: HeLa
# T5 sequence (P03372 311-547 M388V/I424Y/L428A): T2 sequence (P03372 311-547 M421V/L428A) with M78V, V111M, I114Y
# Procedure: as §1, §2
# [6] = target: T6, 388V-424Y-428A transcription factor system (Homo sapiens, UniProt P03372, I424Y/L428A/M388V); assay: In vivo regulation of endostatin transgene, gutless vectors, serum endostatin ELISA; design: species or system C57BL/6 mice; conditions: 50 ug/animal IP; for Endostatin Levels: vectors 5×10^10 particles/mouse each, n = 3
# T6 construct: fragment B=ER amino acids 258-554; expressed in transfected cells; host or cells: HeLa cells transduced with Av3 or gutless adenoviral vector
# T6 sequence (P03372 258-554 M388V/I424Y/L428A): T1 sequence (P03372 258-554 M421V/L428A) with M131V, V164M, I167Y
# Procedure: To address this issue of sustained induction, a second in vivo study was performed.
# [7] = target: T7, Av3-388V/424Y/428A (Homo sapiens, UniProt P03372, I424Y/L428A/M388V); assay: Transactivation on adenoviral (Av3)-delivered ER variant, luciferase in HeLa cells; assay type: cell-based; conditions: 100 nM test compound, 24 hrs (FIG. 5)
# T7 construct: fragment B=ER amino acids 258-554; expressed in transfected cells; host or cells: HeLa cells transduced with Av3 or gutless adenoviral vector
# T7 sequence (P03372 258-554 M388V/I424Y/L428A): T1 sequence (P03372 258-554 M421V/L428A) with M131V, V164M, I167Y
# From the text: Xu et al., Molecular Therapy, 3:262-273, 2000.
Compound,melting point [°C],"response relative to basal activity / fold induction ([1]; 100 nM test compound, 24 hrs (FIG. 5))",fold induction at 0.1 µM ([1]; read-out: response relative to basal activity / fold induction),EC50 [2] [µM],IC50 [3] [µM],Fold Induction ([4]; 100 nM ligand vs without ligand) [fold],"Luciferase Expression Levels (Relative Light Units) ([4]; (+) induced with 100 nM ligand, mean +/− standard error (n = 4))","EC50 ([5]; HeLa cells cotransfected with pC7ERLBD 388V/424Y/428A and p6x2C7Luc, 0.1 to 1000 nM, mean of two or more experiments, read-out: EC50 ± STDEV)",sensitivity of mutant ER LBD 388V/424Y/428A to LBB 938 relative to estrogen ([5]; ratio of EC50 values),"endostatin expression, result in words [6]",Endostatin Levels ([6]; Day 1) [ng/mL],Endostatin Levels ([6]; Day 3) [ng/mL],Endostatin Levels ([6]; Day 7) [ng/mL],luciferase activity over the basal level [7] [fold]
"COC(=O)NC/C(=C(\c1ccc(O)cc1)c1ccc(OCCN(C)C)cc1)c1ccccc1 [LBC081, Carbamic acid, [(2E)-3-[4-[2-(dimethylamino)ethoxy]phenyl]-3-(4-hydroxyphenyl)-2-phenyl-2-propenyl]-, methyl ester]",161 to 162,three,3,0.0117,0.845,,,,,,,,,
"COC(=O)NC/C(=C(/c1ccc(O)cc1)c1ccc(OCCN(C)C)cc1)c1ccccc1 [LBB551, Carbamic acid, [(2Z)-3-[4-[2-(dimethylamino)ethoxy]phenyl]-3-(4-hydroxyphenyl)-2-phenyl-2-propenyl]-, methyl ester]",122 to 123,,,0.00489,0.955,,,,,,,,,
"CN(C)CCOc1ccc(/C(=C(/CC2CC3CCC2C3)c2ccccc2)c2ccc(O)cc2)cc1 (stereo not drawn) [LBB938, 4-((1Z))-3-bicyclo[hept-2-yl-1-{4-[2-(dimethylamino)ethoxy]phenyl}-2-phenylprop-1-enyl)phenol]",,,,,0.388,90,3284939 +/− 116076 Relative Light Units,0.0284 µM and ~0.028 µM,approximately eight,induce endostatin expression,6074 ± 3536,2332 ± 333,600 ± 72,19
